molecular target: skeletal myofibrils (Rabbit Psoas) myosin ATPase; assay: Skeletal Myofibril ATPase Assay; type: biochemical; conditions: PK/LDH coupled, absorbance at 340 nm
Protocol: Overview: Myosin ATPase activity was assessed by using a coupled reaction system, in which ADP generated by the myosin ATPase function was coupled to the disappearance of NADH through the pyruvate kinase/lactate dehydrogenase (PK-LDH) system. Myosin ATPase activity produces ADP, which was used as a substrate for PK to produce pyruvate and regenerate ATP. The pyruvate was then used as a substrate by LDH to oxidize NADH to NAD+. The rate of the reaction was monitored through the time-dependent disappearance of NADH using absorbance at 340 nm. Inhibition of ATPase activity by the assayed compounds was indicated by a reduced rate of NADH loss, relative to vehicle-treated controls, over the experimental time window. To assess the selectivity of the assayed compounds for skeletal myofibrils, the compounds were counter-screened in cardiac myofibrils.
Materials: The following stock solutions and reagents were used in the Skeletal Myofibril ATPase Assay:
Stock Solutions of pCa buffer. Combine PIPES, CaCl2, and EGTA solutions with 70 mL of water. Adjust pH to 7.0 and bring final volume to 100 mL.
Buffer A & Buffer B. Buffers were stored on ice until use.
Skeletal Myofibril ATPase Assay Procedure: BSA, ATP, NADH, PEP, and DTT solutions were thawed at room temperature, then transferred to ice. Pellet-frozen myofibrils (approximately twice the required volume) were transferred into a sufficiently large tube and capped. Myofibrils were thawed by rolling in a water bath for approximately 15 min at room temperature and cooled on ice. Buffers A and B were prepared by adjusting volumes as necessary for required number of wells and stored on ice. 0.5 μL of the compounds to be assayed were added into wells of a 384-well plate. Buffers A and B were mixed by inversion immediately prior to use, then 25 μL of each was dispensed using a Multidrop dispenser (Buffer A first, then Buffer B). The absorbance within the wells was measured at 340 nm, using a kinetic protocol in which the wells are read every 1.5-2 min for 1 h. The reaction rate was qualitatively assessed by subtracting the minimum absorbance value from the maximum value for each well, using either the SoftMax Pro plate reader software or a spreadsheet program such as Excel. Using GraphPad Prism 8.0, the data was normalized, with 100% activity defined as the absorbance change in the 1% DMSO vehicle wells and 0% assigned to no change in absorbance over the course of the experiment. The normalized data were fit to a variable-slope four-parameter logistic model, constraining the bottom to be 0 or greater. Compounds of Table 1 to 3 were tested and results of the assay appear in Table 4 herein. A=IC50 is less than or equal to 10 μM; B=IC50 is greater than 10 μM and less than 100 μM; C=IC50 is greater than 100 μM.

O=c1ccc(-c2cnc(OCC(F)(F)F)nc2)nn1CCC1CCC1 [Compound 1, 2-(2-cyclobutylethyl)-6-(2-(2,2,2-trifluoroethoxy)pyrimidin-5-yl)pyridazin-3(2H)-one] was tested. Which IC50 did it give?
Its IC50 is no more than 10 µM.

How did the IC50 turn out when O=c1ccc(-c2cnc(OCC(F)(F)F)nc2)nn1CCCc1ccccc1 [Compound 2, 2-(3-phenylpropyl)-6-(2-(2,2,2-trifluoroethoxy)pyrimidin-5-yl)pyridazin-3(2H)-one] was run?
The IC50 was no more than 10 µM.

For CC1CC1CCn1nc(-c2cnc(OCC(F)(F)F)nc2)ccc1=O (stereo not shown) [Compound 3, 2-(2-(2-methylcyclopropyl)ethyl)-6-(2-(2,2,2-trifluoroethoxy)pyrimidin-5-yl)pyridazin-3(2H)-one], which IC50 is on record?
Its IC50 is no more than 10 µM.

O=c1ccc(-c2cnc(OCC(F)(F)F)nc2)nn1CCc1ccccc1 [Compound 4, 2-phenethyl-6-(2-(2,2,2-trifluoroethoxy)pyrimidin-5-yl)pyridazin-3(2H)-one] was tested. Which IC50 did it give?
The IC50 was no more than 10 µM.

With O=c1ccc(-c2cnc(OCC(F)(F)F)nc2)nn1CCC1CC1 [Compound 5, 2-(2-cyclopropylethyl)-6-(2-(2,2,2-trifluoroethoxy)pyrimidin-5-yl)pyridazin-3(2H)-one] as the compound, how does the IC50 read?
The IC50 was no more than 10 µM.

Which IC50 does the source give for O=c1ccc(-c2cnc(OCC(F)(F)F)nc2)nn1CCc1ccc(Cl)cc1 [Compound 6, 2-(4-chlorophenethyl)-6-(2-(2,2,2-trifluoroethoxy)pyrimidin-5-yl)pyridazin-3(2H)-one] here?
Its IC50 is no more than 10 µM.

With O=c1ccc(-c2cnc(OCC(F)(F)F)nc2)nn1CCC12CC(C1)C2 [Compound 7, 2-(2-(bicyclo[1.1.1]pentan-1-yl)ethyl)-6-(2-(2,2,2-trifluoroethoxy)pyrimidin-5-yl)pyridazin-3(2H)-one] as the compound, how does the IC50 read?
The IC50 was no more than 10 µM.

How did the IC50 turn out when CCCn1nc(-c2cnc(OCC(F)(F)F)nc2)ccc1=O [Compound 8, 2-propyl-6-(2-(2,2,2-trifluoroethoxy)pyrimidin-5-yl)pyridazin-3(2H)-one] was run?
The IC50 was no more than 10 µM.

Which IC50 does the source give for O=c1ccc(-c2cnc(OCC(F)(F)F)nc2)nn1CCc1cncc(F)c1 [Compound 9, 2-(2-(5-fluoropyridin-3-yl)ethyl)-6-(2-(2,2,2-trifluoroethoxy)pyrimidin-5-yl)pyridazin-3(2H)-one] here?
Its IC50 is no more than 10 µM.

Which IC50 does the source give for O=c1ccc(-c2cnc(OCC(F)(F)F)nc2)nn1CCc1ccccn1 [Compound 10, 2-(2-(pyridin-2-yl)ethyl)-6-(2-(2,2,2-trifluoroethoxy)pyrimidin-5-yl)pyridazin-3(2H)-one] here?
The IC50 was no more than 10 µM.

With O=c1ccc(-c2ccc(OC(F)F)cc2)nn1CCc1ccc(Cl)cc1 [Compound 11, 2-(4-chlorophenethyl)-6-(4-(difluoromethoxy)phenyl)pyridazin-3(2H)-one] as the compound, how does the IC50 read?
Its IC50 is no more than 10 µM.

Which IC50 does the source give for O=c1ccc(-c2ccc(OC(F)F)nc2)nn1CCc1ccc(Cl)cc1 [Compound 12, 2-(4-chlorophenethyl)-6-(6-(difluoromethoxy)pyridin-3-yl)pyridazin-3(2H)-one] here?
The IC50 was no more than 10 µM.

With CC(Cn1nc(-c2cnc(OCC(F)(F)F)nc2)ccc1=O)c1ccccc1 (stereo not shown) [Compound 13, 2-(2-phenylpropyl)-6-(2-(2,2,2-trifluoroethoxy)pyrimidin-5-yl)pyridazin-3(2H)-one] as the compound, how does the IC50 read?
The IC50 was no more than 10 µM.

COc1ccc(-c2ccc(=O)n(CC3CCCCC3)n2)cc1 [Compound 14, 2-(cyclohexylmethyl)-6-(4-methoxyphenyl)pyridazin-3(2H)-one] was tested. Which IC50 did it give?
Its IC50 is no more than 10 µM.

For O=c1ccc(-c2ccc(Cl)cc2)nn1CCc1ccccc1 [Compound 15, 6-(4-chlorophenyl)-2-phenethylpyridazin-3(2H)-one], which IC50 is on record?
Its IC50 is no more than 10 µM.

With COc1ccc(-c2ccc(=O)n(CCc3ccccc3)n2)cc1 [Compound 16, 6-(4-methoxyphenyl)-2-phenethylpyridazin-3(2H)-one] as the compound, how does the IC50 read?
The IC50 was no more than 10 µM.

Which IC50 does the source give for CC(C)(C)CCn1nc(-c2cnc(OCC(F)(F)F)nc2)ccc1=O [Compound 17, 2-(3,3-dimethylbutyl)-6-(2-(2,2,2-trifluoroethoxy)pyrimidin-5-yl)pyridazin-3(2H)-one] here?
Its IC50 is 10 to 100 µM.

For O=c1ccc(-c2ccccc2)nn1CC(O)COCc1ccccc1Cl (stereo not shown) [Compound 18, 2-(3-((2-chlorobenzyl)oxy)-2-hydroxypropyl)-6-phenylpyridazin-3(2H)-one], which IC50 is on record?
The IC50 was 10 to 100 µM.

Which IC50 does the source give for O=c1ccc(-c2cnc(OCC(F)(F)F)nc2)nn1CCc1ccncc1 [Compound 19, 2-[2-(pyridin-4-yl)ethyl]-6-[2-(2,2,2-trifluoroethoxy)pyrimidin-5-yl]pyridazin-3-one] here?
Its IC50 is no more than 10 µM.

CSc1ccc(-c2ccc(=O)n(C/C=C/c3ccccc3)n2)cc1 [Compound 20, 2-cinnamyl-6-(4-(methylthio)phenyl)pyridazin-3(2H)-one] was tested. Which IC50 did it give?
The IC50 was no more than 10 µM.

O=c1ccc(-c2ccc(Cl)cc2)nn1CC1CCCCC1 [Compound 21, 6-(4-chlorophenyl)-2-(cyclohexylmethyl)pyridazin-3(2H)-one] was tested. Which IC50 did it give?
The IC50 was no more than 10 µM.

For O=c1ccc(-c2ccc3c(c2)OCCCO3)nn1CCOc1ccc(F)cc1 [Compound 22, 6-(3,4-dihydro-2H-benzo[b][1,4]dioxepin-7-yl)-2-(2-(4-fluorophenoxy)ethyl)pyridazin-3(2H)-one], which IC50 is on record?
Its IC50 is 10 to 100 µM.

N#CCn1nc(-c2ccc(Br)cc2)ccc1=O [Compound 23, 2-(3-(4-bromophenyl)-6-oxopyridazin-1(6H)-yl)acetonitrile] was tested. Which IC50 did it give?
Its IC50 is 10 to 100 µM.

Which IC50 does the source give for CCOc1ccc(-c2ccc(=O)n(CCNC(=O)CC3CCCC3)n2)cc1 [Compound 24, 2-cyclopentyl-N-(2-(3-(4-ethoxyphenyl)-6-oxopyridazin-1(6H)-yl)ethyl)acetamide] here?
Its IC50 is greater than 100 µM.

Which IC50 does the source give for N#CCn1nc(-c2cnc(OCC(F)(F)F)nc2)ccc1=O [Compound 25, 2-(6-oxo-3-(2-(2,2,2-trifluoroethoxy)pyrimidin-5-yl)pyridazin-1(6H)-yl)acetonitrile] here?
The IC50 was 10 to 100 µM.

For CC(C)OCCn1nc(-c2ccc3c(c2)OCCCO3)ccc1=O [Compound 26, 6-(3,4-dihydro-2H-benzo[b][1,4]dioxepin-7-yl)-2-(2-isopropoxyethyl)pyridazin-3(2H)-one], which IC50 is on record?
Its IC50 is 10 to 100 µM.

For C=C(C)Cn1nc(-c2ccc(Br)cc2)ccc1=O [Compound 27, 6-(4-bromophenyl)-2-(2-methylallyl)pyridazin-3(2H)-one], which IC50 is on record?
Its IC50 is 10 to 100 µM.

CCOc1ccc(-c2ccc(=O)n(CCNC(=O)C3CCCC3)n2)cc1 [Compound 28, N-(2-(3-(4-ethoxyphenyl)-6-oxopyridazin-1(6H)-yl)ethyl)cyclopentanecarboxamide] was tested. Which IC50 did it give?
The IC50 was greater than 100 µM.

With CC(=O)NCCn1nc(-c2ccc(OC(F)F)cc2)ccc1=O [Compound 29, N-(2-(3-(4-(difluoromethoxy)phenyl)-6-oxopyridazin-1(6H)-yl)ethyl)acetamide] as the compound, how does the IC50 read?
Its IC50 is greater than 100 µM.

CS(=O)(=O)NCCn1nc(-c2ccc(OC(F)F)nc2)ccc1=O [Compound 30, N-(2-(3-(6-(difluoromethoxy)pyridin-3-yl)-6-oxopyridazin-1(6H)-yl)ethyl)methanesulfonamide] was tested. Which IC50 did it give?
The IC50 was greater than 100 µM.

CC1(Cn2nc(-c3ccc(OC(F)F)nc3)ccc2=O)COC1 [Compound 31, 6-(6-(difluoromethoxy)pyridin-3-yl)-2-((3-methyloxetan-3-yl)methyl)pyridazin-3(2H)-one] was tested. Which IC50 did it give?
Its IC50 is greater than 100 µM.

How did the IC50 turn out when CC1(Cn2nc(-c3cnc(OCC(F)(F)F)nc3)ccc2=O)COC1 [Compound 32, 2-((3-methyloxetan-3-yl)methyl)-6-(2-(2,2,2-trifluoroethoxy)pyrimidin-5-yl)pyridazin-3(2H)-one] was run?
Its IC50 is greater than 100 µM.

For CCNC(Cn1nc(-c2ccc(OC(F)F)nc2)ccc1=O)C(F)(F)F (stereo not shown) [Compound 33, 6-(6-(difluoromethoxy)pyridin-3-yl)-2-(2-(ethylamino)-3,3,3-trifluoropropyl)pyridazin-3(2H)-one], which IC50 is on record?
The IC50 was greater than 100 µM.

For O=c1ccc(-c2ccc(OC(F)F)nc2)nn1CCO [Compound 34, 6-(6-(difluoromethoxy)pyridin-3-yl)-2-(2-hydroxyethyl)pyridazin-3(2H)-one], which IC50 is on record?
The IC50 was greater than 100 µM.

For O=c1ccc(-c2ccc(Cl)cc2)nn1CC1CCOCC1 [Compound 35, 6-(4-chlorophenyl)-2-((tetrahydro-2H-pyran-4-yl)methyl)pyridazin-3(2H)-one], which IC50 is on record?
Its IC50 is greater than 100 µM.

With O=C(CCn1nc(-c2ccccc2)ccc1=O)NC1CCCCC1 [Compound 36, N-cyclohexyl-3-(6-oxo-3-phenylpyridazin-1(6H)-yl)propanamide] as the compound, how does the IC50 read?
Its IC50 is greater than 100 µM.

With COc1ccc(-c2ccc(=O)n(CCNC(=O)Nc3cccs3)n2)cc1 [Compound 37, 1-(2-(3-(4-methoxyphenyl)-6-oxopyridazin-1(6H)-yl)ethyl)-3-(thiophen-2-yl)urea] as the compound, how does the IC50 read?
Its IC50 is greater than 100 µM.

From patent US20230150977A1, “PYRIDAZINONE COMPOUNDS FOR THE TREATMENT OF NEUROMUSCULAR DISEASES” (Edgewise Therapeutics, Inc., priority 2020, published 2023)
